Target: T1, FKBP51FK1 (Homo sapiens, UniProt Q13451)
T1 construct: FKBP51FK1
T1 sequence (Q13451 42-130 limits assumed): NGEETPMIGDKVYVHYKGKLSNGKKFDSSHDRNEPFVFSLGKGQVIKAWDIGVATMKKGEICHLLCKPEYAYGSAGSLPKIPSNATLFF
Assay: Binding affinities of exemplary compounds to FKBP51
Experimental: Binding to FKBP51 is an important prerequisite in order to allow degradation of FKBP51. Thus, the binding affinities of the newly synthesized molecules (table 1) were tested.

Row | SMILES | Ki
1 | COc1cccc([C@H](CCc2ccc(OCc3cn(CCOCC(=O)N[C@H](C(=O)N4C[C@H](O)C[C@H]4C(=O)NCc4ccc(-c5scnc5C)cc4)C(C)(C)C)nn3)c(OC)c2)OC(=O)[C@H]2CCCCN2C(=O)[C@H](c2cc(OC)c(OC)c(OC)c2)C2CCCCC2)c1 [MTQ328, (S)-(R)-3-(4-((1-(2-(2-(((S)-1-((2S,4R)-4-Hydroxy-2-((4-(4-methylthiazol-5-yl)benzyl)carbamoyl)pyrrolidin-1-yl)-3,3-dimethyl-1-oxobutan-2-yl)amino)-2-oxoethoxy)ethyl)-1H-1,2,3-triazol-4-yl)methoxy)-3-methoxyphenyl)-1-(3-methoxyphenyl)propyl 1-((S)-2-cyclohexyl-2-(3,4,5-trimethoxyphenyl)acetyl)piperidine-2-carboxylate] | 47 ± 19 nM
2 | COc1ccc(CC[C@H](OC(=O)[C@H]2CCCCN2C(=O)[C@H](c2cc(OC)c(OC)c(OC)c2)C2CCCCC2)c2cccc(OCc3cn(CCOCCOCCOCC(=O)N[C@H](C(=O)N4C[C@H](O)C[C@H]4C(=O)NCc4ccc(-c5scnc5C)cc4)C(C)(C)C)nn3)c2)cc1OC [MTQ201, (S)-(R)-3-(3,4-Dimethoxyphenyl)-1-(3-((1-((S)-13-((2S,4R)-4-hydroxy-2-((4-(4-methylthiazol-5-yl)benzyl)carbamoyl)pyrrolidine-1-carbonyl)-14,14-dimethyl-11-oxo-3,6,9-trioxa-12-azapentadecyl)-1H-1,2,3-triazol-4-yl)methoxy)phenyl)propyl 1-((S)-2-cyclohexyl-2-(3,4,5-trimethoxyphenyl)acetyl)piperidine-2-carboxylate] | 23 ± 7 nM
3 | COc1ccc(CC[C@H](OC(=O)[C@H]2CCCCN2C(=O)[C@H](c2cc(OC)c(OC)c(OC)c2)C2CCCCC2)c2cccc(OCc3cn(CCOCC(=O)N[C@H](C(=O)N4C[C@H](O)C[C@H]4C(=O)NCc4ccc(-c5scnc5C)cc4)C(C)(C)C)nn3)c2)cc1OC (stereo in doubt) [MTQ199, (S)-(R)-3-(3,4-Dimethoxyphenyl)-1-(3-((1-(2-(2-(((S)-1-((2S,4R)-4-hydroxy-2-((4-(4-methylthiazol-5-yl)benzyl)carbamoyl)pyrrolidin-1-yl)-3,3-dimethyl-1-oxobutan-2-yl)amino)-2-oxoethoxy)ethyl)-1H-1,2,3-triazol-4-yl)methoxy)phenyl)propyl 1-((S)-2-cyclohexyl-2-(3,4,5-trimethoxyphenyl)acetyl)piperidine-2-carboxylate] | 25 ± 6 nM
4 | COc1cccc([C@H](CCc2ccc(OCc3cn(CCOCCOCC(=O)N[C@H](C(=O)N4C[C@H](O)C[C@H]4C(=O)NCc4ccc(-c5scnc5C)cc4)C(C)(C)C)nn3)c(OC)c2)OC(=O)[C@H]2CCCCN2C(=O)[C@H](c2cc(OC)c(OC)c(OC)c2)C2CCCCC2)c1 [MTQ329, (S)-(R)-3-(4-((1-(2-(2-(2-(((S)-1-((2S,4R)-4-Hydroxy-2-((4-(4-methylthiazol-5-yl)benzyl)carbamoyl)pyrrolidin-1-yl)-3,3-dimethyl-1-oxobutan-2-yl)amino)-2-oxoethoxy)ethoxy)ethyl)-1H-1,2,3-triazol-4-yl)methoxy)-3-methoxyphenyl)-1-(3-methoxyphenyl)propyl 1-((S)-2-cyclohexyl-2-(3,4,5-trimethoxyphenyl)acetyl)piperidine-2-carboxylate] | 60 ± 16 nM
5 | C#CCOc1cc(CCC(OC(=O)C2CCCCN2C(=O)[C@H](c2cc(OC)c(OC)c(OC)c2)C2CCCCC2)c2cccc(OC)c2)ccc1OC (stereo in doubt) [Molecule (10), (S)-(R)-3-(4-methoxy-3-(prop-2-yn-1-yloxy)phenyl)-1-(3-methoxyphenyl)propyl 1-((S)-2-cyclohexyl-2-(3,4,5-trimethoxyphenyl)acetyl)piperidine-2-carboxylate] | 149 ± 39 nM
6 | COc1ccc(CC[C@@H](OC(=O)[C@@H]2CCCCN2C(=O)[C@H](c2cc(OC)c(OC)c(OC)c2)C2CCCCC2)c2cccc(OCc3cn(CCOCCOCC(=O)N[C@H](C(=O)N4C[C@H](O)C[C@H]4C(=O)NCc4ccc(-c5scnc5C)cc4)C(C)(C)C)nn3)c2)cc1OC [MTQ200] | 24 ± 7 nM
